Results published in US20250051323A1 (RICHTER GEDEON NYRT., priority 2021, published 2025).
Structures can show the parent of a compound that is named as a salt. Where two headings read alike, the source gives them in different places.

What was measured:
[1] = target: T1, human recombinant GABAA α5β3γ2 receptor (Homo sapiens (Human), UniProt P18507+P31644); experiment: Binding assay, [3H]Ro151788 displacement on HEK cell membranes; conditions: [3H]Ro151788 0.5 nM, 60 minutes at 4° C., Cheng-Prusoff; read-out: hGABAA α5 Ki
Experimental: The GABAA α5β3γ2 protein used for the receptor binding assay was derived from membranes produced from HEK cells (Millipore CYL3073) expressing the human recombinant GABAA α5β3γ2 receptor. Cells were stored and cultured in-house according to the instructions provided by the vendor (Millipore). Cell pellet was homogenized in 10 times modified Krebs Henseleit buffer (membrane preparation buffer): 20 mM Tris, 120 mM NaCl, 100 mM KCl, 25 mM CaCl2 and 25 mM MgCl2 pH=7.4 at 4° C. using Ultra Turrax (Janke&Kunkel) maximal speed for 15 seconds. The homogenate was centrifuged at 40,000 g for 30 minutes at 4° C. Supernatant was discarded and the resulting pellet was washed in membrane preparation buffer. Pellet was resuspended in membrane preparation buffer and aliquots of 1.4 mL ampules were stored at −70° C. until use.
Receptor binding assays were performed in 96-well format in deep-well plates. For each 96-well plate one ampule of membrane homogenate was thawed and diluted in binding buffer (50 mM Tris pH=7.4, 100 mM KCl) and 200 μL was dispensed into each well. Radioligand [^3H]Ro151788 (Perkin Elmer: NET757250UC) was prepared in binding buffer and added to each well in 50 μL volume to give final concentration of 0.5 nM. Test compounds in suitable concentration(s) were added in additional 50 μL. The final assay volume was 300 μL. Incubation was carried out for 60 minutes at 4° C. For non-specific binding 10 μM unlabeled diazepam was used. […] The plate was dried at 40° C. for an hour and 40 μL Microscint (Perkin Elmer) scintillation cocktail was added to each well. The plate was read in Microbeta (Perkin Elmer).
The specific radioligand binding (SB) was defined as the difference between total binding (Tot) and the non-specific binding (NSB). Results are expressed as a percent inhibition of specific binding obtained in the presence of compound of interest.
For IC50 and Ki determination a minimum of six drug concentrations in triplicate were used. […] Ki values (i.e., inhibition constants) were calculated using the Cheng-Prusoff equation Ki=IC5O/[1+(L/KD)], where [L] is the radioligand concentration and KD the affinity of the labelled ligand for receptor. KD was determined from the Saturation analyses.

[2] = target: T1, human recombinant GABAA α5β3γ2 receptor; experiment: Functional assay, QPatch automated whole-cell patch clamp, modulation of GABA-evoked current; format: cell-based; conditions: read-out: hGABAA α5 efficacy (percentage modulation of GABA-evoked peak current)
Experimental: Human HEK293 cell lines expressing GABAAα5β3γ2 receptors were used in functional assays using the QPatch automated patch clamp system.
HEK293 cell lines stably expressing human recombinant GABAA α5β3γ2 receptor subunits (Millipore, CYL3053) were cultured in DMEM supplemented with 10% FBS (Gibco), passed two times per week and plated on Petri dishes previously coated with poly-d-lysine.
Automated whole-cell patch clamp recordings were made from cells 2-4 days after plating.
Inward currents were evoked at a holding potential of −80 mV by 3-s-long applications of the control agonist GABA at 1 μM at 2-4-min intervals first in concentration-matched DMSO (0.1 or 0.3%) control solution for five times, then in the presence of the test compound for four times, finally in control solution again for three times (wash-out). At the end of the experiment 100 μM GABA was applied to saturate the GABA-response and to assess the efficacy of the control GABA application. Current signals were low-pass filtered at 100 Hz and recorded at a sampling rate of 1 kHz.
The percentage modulation was calculated from the comparison of GABA-evoked peak current amplitudes in the presence and absence of the test compound.

[3] = test compound 1 μM, GABA 1 μM, holding potential −80 mV

T1 sequence (P31644 32-462): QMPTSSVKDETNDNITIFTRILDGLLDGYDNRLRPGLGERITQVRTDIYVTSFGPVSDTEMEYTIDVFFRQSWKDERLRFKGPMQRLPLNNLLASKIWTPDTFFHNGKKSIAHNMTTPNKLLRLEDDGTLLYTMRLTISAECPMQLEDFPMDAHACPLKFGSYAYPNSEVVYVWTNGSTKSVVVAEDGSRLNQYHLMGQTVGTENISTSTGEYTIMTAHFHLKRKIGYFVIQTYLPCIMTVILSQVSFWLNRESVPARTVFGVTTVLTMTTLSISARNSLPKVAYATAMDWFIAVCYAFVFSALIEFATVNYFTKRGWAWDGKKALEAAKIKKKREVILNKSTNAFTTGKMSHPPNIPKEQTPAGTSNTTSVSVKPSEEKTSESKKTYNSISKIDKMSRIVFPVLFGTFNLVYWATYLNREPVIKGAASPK
T1 sequence (P28472 26-473 partner): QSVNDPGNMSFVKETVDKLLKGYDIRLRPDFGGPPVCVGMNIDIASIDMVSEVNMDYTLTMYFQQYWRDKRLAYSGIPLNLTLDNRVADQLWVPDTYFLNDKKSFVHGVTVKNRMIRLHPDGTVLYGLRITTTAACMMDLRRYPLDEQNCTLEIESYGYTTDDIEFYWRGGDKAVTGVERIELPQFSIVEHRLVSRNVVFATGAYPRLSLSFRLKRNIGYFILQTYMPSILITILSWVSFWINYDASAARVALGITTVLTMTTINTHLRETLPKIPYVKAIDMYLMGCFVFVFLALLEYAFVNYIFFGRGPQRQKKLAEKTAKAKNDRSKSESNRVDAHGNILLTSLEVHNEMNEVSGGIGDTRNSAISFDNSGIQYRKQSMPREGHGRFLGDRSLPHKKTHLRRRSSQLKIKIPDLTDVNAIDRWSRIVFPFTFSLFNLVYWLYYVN
T1 sequence (P18507 40-475): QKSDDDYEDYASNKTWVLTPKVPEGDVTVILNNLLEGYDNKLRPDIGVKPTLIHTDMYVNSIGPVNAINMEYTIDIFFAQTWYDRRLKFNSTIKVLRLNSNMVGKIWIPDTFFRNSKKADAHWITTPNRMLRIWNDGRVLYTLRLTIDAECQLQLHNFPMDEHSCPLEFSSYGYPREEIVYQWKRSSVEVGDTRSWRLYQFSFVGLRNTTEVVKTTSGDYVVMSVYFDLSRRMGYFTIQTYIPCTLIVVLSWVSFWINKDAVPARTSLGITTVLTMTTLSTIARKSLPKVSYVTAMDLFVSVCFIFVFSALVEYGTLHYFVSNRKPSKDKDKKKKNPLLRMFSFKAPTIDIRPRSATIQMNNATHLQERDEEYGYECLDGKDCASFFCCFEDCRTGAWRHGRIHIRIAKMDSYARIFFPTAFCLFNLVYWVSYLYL

Row | Compound | Ki [1] [nM] | activation at 1 µM [2, 3] [%] | activation at 1 µM [2] [%]
1 | Cc1ccc(-n2nnc(C)c2COc2cc3c(nn2)CNCC3)cn1 [Example 44, 2-methyl-5-[4-methyl-5-({5H,6H,7H,8H-pyrido[3,4-c]pyridazin-3-yloxy}methyl)-1H-1,2,3-triazol-1-yl]pyridine] | 40.4 | 96 | –
2 | Cc1ccc(-c2noc(C)c2COc2cc3c(cn2)CN(C2CCOC2)CC3)cn1 (stereo not drawn) [Example 9, 6-{[5-methyl-3-(6-methylpyridin-3-yl)-1,2-oxazol-4-yl]methoxy}-2-(oxolan-3-yl)-1,2,3,4-tetrahydro-2,7-naphthyridine] | 4.9 | 106 | –
3 | CCC1(N2CCc3cc(OCc4c(C)nnn4-c4ccc(C)nc4)ncc3C2)COC1 [Example 43, 2-(3-ethyloxetan-3-yl)-6-{[4-methyl-1-(6-methylpyridin-3-yl)-1H-1,2,3-triazol-5-yl]methoxy}-1,2,3,4-tetrahydro-2,7-naphthyridine napadisylate salt] | – | 85 | –
4 | Cc1ccc(-n2nnc(C)c2COc2cc3c(cn2)CN([C@@H]2CCOC2)CC3)cn1 (single isomer, unassigned) [Example 38, 6-{[4-methyl-1-(6-methylpyridin-3-yl)-1H-1,2,3-triazol-5-yl]methoxy}-2-[(3S)-oxolan-3-yl]-1,2,3,4-tetrahydro-2,7-naphthyridine or enantiomer, tartarate salt] | 20.9 | – | –
5 | Cc1ccc(-n2nnc(C)c2COc2cc3c(cn2)CN(C2CCOC2)CC3)cn1 (racemic) [Example 29, 6-{[4-methyl-1-(6-methylpyridin-3-yl)-1H-1,2,3-triazol-5-yl]methoxy}-2-(oxolan-3-yl)-1,2,3,4-tetrahydro-2,7-naphthyridine] | 29.7 | 102 | –
6 | Cc1nnn(-c2ccc(C(F)F)nc2)c1COc1cc2c(cn1)CN(C1CCOC1)CC2 (stereo not drawn) [Example 30, 6-({1-[6-(difluoromethyl)pyridin-3-yl]-4-methyl-1H-1,2,3-triazol-5-yl}methoxy)-2-(oxolan-3-yl)-1,2,3,4-tetrahydro-2,7-naphthyridine] | 3.3 | 59 | –
7 | COc1ccc(-n2nnc(C)c2COc2cc3c(cn2)CNCC3)cn1 [Example 34, 6-{[1-(6-methoxypyridin-3-yl)-4-methyl-1H-1,2,3-triazol-5-yl]methoxy}-1,2,3,4-tetrahydro-2,7-naphthyridine] | 51.6 | 62 | –
8 | Cc1nnn(-c2ccc(C(F)F)nc2)c1COc1cc2c(cn1)CN(C(C)C)CC2 [Example 28, 6-({1-[6-(difluoromethyl)pyridin-3-yl]-4-methyl-1H-1,2,3-triazol-5-yl}methoxy)-2-(propan-2-yl)-1,2,3,4-tetrahydro-2,7-naphthyridine] | 5.9 | – | –
9 | Cc1ccc(-c2noc(C)c2COc2cc3c(cn2)CNCC3)cn1 [Example 1, 6-{[5-methyl-3-(6-methylpyridin-3-yl)-1,2-oxazol-4-yl]methoxy}-1,2,3,4-tetrahydro-2,7-naphthyridine trifluoroacetic acid salt] | 3.9 | – | 155
10 | Cc1ccc(-n2nnc(C)c2COc2cc3c(cn2)CN(C2(C(C)C)COC2)CC3)cn1 [Example 42, 6-{[4-methyl-1-(6-methylpyridin-3-yl)-1H-1,2,3-triazol-5-yl]methoxyl}-2-[3-(propan-2-yl)oxetan-3-yl]-1,2,3,4-tetrahydro-2,7-naphthyridine napadisylate salt] | – | 99 | –
11 | Cc1ccc(-n2nnc(C)c2COc2cc3c(cn2)CNCC3)cn1 [Example 20, 6-{[4-methyl-1-(6-methylpyridin-3-yl)-1H-1,2,3-triazol-5-yl]methoxy}-1,2,3,4-tetrahydro-2,7-naphthyridine] | 26.5 | 111 | –
12 | Cc1nnn(-c2ccc(C(F)F)nc2)c1COc1cc2c(cn1)CNCC2 [Example 23, 6-({1-[6-(difluoromethyl)pyridin-3-yl]-4-methyl-1H-1,2,3-triazol-5-yl}methoxy)-1,2,3,4-tetrahydro-2,7-naphthyridine] | 7.3 | – | –
13 | Cc1ccc(-c2noc(C)c2COc2cc3c(cn2)CN(C)CC3)cn1 [Example 3, 2-methyl-6-{[5-methyl-3-(6-methylpyridin-3-yl)-1,2-oxazol-4-yl]methoxy}-1,2,3,4-tetrahydro-2,7-naphthyridine] | 4.2 | – | –
14 | Cc1onc(-c2ccc(C(F)(F)F)nc2)c1COc1cc2c(nn1)CN(C)CC2 [Example 17] | 17.6 | – | –
15 | Cc1onc(-c2ccc(C(F)(F)F)nc2)c1COc1cc2c(cn1)CN(C(C)CS(C)(=O)=O)CC2 (stereo not drawn) [Example 12, 2-(1-methanesulfonylpropan-2-yl)-6-({5-methyl-3-[6-(trifluoromethyl)pyridin-3-yl]-1,2-oxazol-4-yl}methoxy)-1,2,3,4-tetrahydro-2,7-naphthyridine] | 28.2 | – | –
16 | Cc1nnn(-c2ccc(C(F)(F)F)nc2)c1COc1cc2c(cn1)CN(C)CC2 [Example 27, 2-methyl-6-({4-methyl-1-[6-(trifluoromethyl)pyridin-3-yl]-1H-1,2,3-triazol-5-yl}methoxy)-1,2,3,4-tetrahydro-2,7-naphthyridine] | 63.2 | – | –
17 | Cc1nnn(-c2ccc(C(F)(F)F)nc2)c1COc1cc2c(cn1)CN(C1CCOCC1)CC2 [Example 35, 6-({4-methyl-1-[6-(trifluoromethyl)pyridin-3-yl]-1H-1,2,3-triazol-5-yl}methoxy)-2-(oxan-4-yl)-1,2,3,4-tetrahydro-2,7-naphthyridine] | 88.8 | – | –
18 | COc1ccc(-n2nnc(C)c2COc2cc3c(cn2)CN(C2CCOCC2)CC3)cn1 [Example 40, 6-{[1-(6-methoxypyridin-3-yl)-4-methyl-1H-1,2,3-triazol-5-yl]methoxy}-2-(oxan-4-yl)-1,2,3,4-tetrahydro-2,7-naphthyridine heminapadisylate salt] | – | 86 | –
19 | Cc1ccc(-c2noc(C)c2COc2cc3c(cn2)CN(CC2CCC2)CC3)cn1 [Example 5, 2-(cyclobutylmethyl)-6-{[5-methyl-3-(6-methylpyridin-3-yl)-1,2-oxazol-4-yl]methoxy}-1,2,3,4-tetrahydro-2,7-naphthyridine] | 7.4 | – | –
20 | Cc1nnn(-c2ccc(C(F)(F)F)nc2)c1COc1cc2c(cn1)CN(C(C)C)CC2 [Example 26, 6-({4-methyl-1-[6-(trifluoromethyl)pyridin-3-yl]-1H-1,2,3-triazol-5-yl}methoxy)-2-(propan-2-yl)-1,2,3,4-tetrahydro-2,7-naphthyridine] | 93.8 | – | –
21 | Cc1ccc(-n2nnc(C)c2COc2cc3c(cn2)CN([C@H]2CCOC2)CC3)cn1 (single isomer, unassigned) [Example 39, 6-{[4-methyl-1-(6-methylpyridin-3-yl)-1H-1,2,3-triazol-5-yl]methoxy}-2-[(3R)-oxolan-3-yl]-1,2,3,4-tetrahydro-2,7-naphthyridine or enantiomer, tartarate salt] | 21.4 | – | –
22 | Cc1nnn(-c2ccc(C(F)(F)F)nc2)c1COc1cc2c(cn1)CN(c1cccnc1)CC2 [Example 37, 6-({4-methyl-1-[6-(trifluoromethyl)pyridin-3-yl]-1H-1,2,3-triazol-5-yl}methoxy)-2-(pyridin-3-yl)-1,2,3,4-tetrahydro-2,7-naphthyridine napadysilate salt] | – | 53 | –
23 | Cc1ccc(-c2noc(C)c2COc2cc3c(cn2)CN(C2CCCC2)CC3)cn1 [Example 6, 2-cyclopentyl-6-{[5-methyl-3-(6-methylpyridin-3-yl)-1,2-oxazol-4-yl]methoxy}-1,2,3,4-tetrahydro-2,7-naphthyridine] | 8.4 | – | –
